The solubility is the dissolved amount per volume that the medium holds. Low readings indicate a poorly soluble substance, high ones a readily soluble substance.

SMILES strings stand for the structures. Values after ≈ are worked out from the molar mass of the structure shown. “Also recorded” adds a separate entry of the source. Where two headings read alike, the source gives them in different places.

The text below walks through data of US20130190324A1, “TOPICAL OCULAR DRUG DELIVERY” (The Regents of the University of Colorado, a body corporate, priority 2011, published 2013).

For series [1] the following is noted: single eye drop, cited from earlier work.
A short description of series [2]: Aqueous solubility of GFX and ion pair complex in PBS. The series is classed as physicochemical. The following applies: phosphate buffer saline (PBS), thermodynamic from solid, phosphate buffer saline pH 7.4, 37° C., mean ± SD, n = 3.
Method: PBS without amino acid was included as control. Samples were incubated at 37° C. for 24 hr in incubator shaker with constant shaking at 200 rpm. At the end of 24 hr of incubations, samples were filtered through 0.45 μm filter and filtrates were analyzed for drug content. All experiments were performed in triplicate.
The nature of series [3]: In vivo ocular tissue distribution after single topical eye drop. Details: species or system pigmented rabbits. The procedure:
Male New Zealand Satin rabbits in the weight range of 1.8 to 3 kg were obtained from Western Oregon Rabbit Company (Philmoth, Oreg.). Rabbits were divided into two groups (2 animals each), one group received GFX solution (5 mg/ml) in sterile phosphate buffer saline (PBS), and the other group received the GFX-ARG (1:1) ion pair complex (5.0 mg/ml) solution in PBS. Rabbits were restrained in a rabbit restrainer and allowed to stabilize for 5-10 minutes. A topical eye drop (30 μl) of drug solution was applied in both eyes of rabbits using a positive displacement pipette (Gilson 10-100 μl) and sterile tips. To minimize the runoff of instilled dose, the eyelids were gently closed for few seconds after dosing. The time of dose administered was recorded for each animal. After 1 hr of dosing, blood samples were collected from the marginal ear vein and rabbits were euthanized by intravenous injection of sodium pentobarbitone (150 mg/kg) in the marginal ear vein. […]
GFX content in rabbit ocular tissues was measured from the tissues by acetonitrile based extraction. […]
The aqueous humor and vitreous samples were analyzed directly after dilution, without extraction. […]
GFX concentrations in the transport study and ocular tissue samples were analyzed using a validated LC-MS/MS method. […]

Series [4] deals with New Zealand white rabbit cornea. Description: In vitro transport across rabbit cornea (Ussing chamber). The following applies: for transport in presence of OCT competitive inhibitor MPP+: MPP+ 500 μM for GFX-ARG ion pair. Format: in vitro ADME. The procedure: (§1) In vitro transport of […], and GFX-LYS were carried out across the New Zealand white rabbit cornea and sclera-choroid-[…]). Rabbit eyes were obtained within 24 hr of harvesting from Pel-Freez Biologicals (Rogers, Ark.) and shipped overnight in Hank's balanced salt solution on wet ice. Eyes were used immediately upon arrival. Eyes were washed with assay buffer and cleaned from the muscle and unwanted tissues. […] The small part of the sclera left with cornea helps in mounting the cornea on Ussing chambers. For isolation of the SCRPE, anterior and posterior parts were separated by a circumferential cut at the limbus. […] After separation of the retina, the eye cup was flattened with small cuts around the globe. […] A circulating water bath was used to maintain the temperature at 37° C. during the transport study. The pH of the assay buffer was maintained at 7.4 using 95% air-5% CO2 aeration which also helps in stirring of bathing solutions. Samples were collected (200 μL) from the receiver side every 30 minute for 3 hr and the lost volume was replaced with fresh assay buffer pre-equilibrated at 37° C. GFX levels were analyzed using an LC-MS/MS assay. […] GFX concentrations in the transport study and ocular tissue samples were analyzed using a validated LC-MS/MS method. […] Chromatographic separation of GFX and the internal standard moxifloxacin was performed on Obelisc C18 column (2.1×10 mm, 3 μm). Elution of analytes was performed using linear gradient elution with mobile phase consisting of 5 mM ammonium formate (pH 3.5) and acetonitrile (pH 3.5) with a flow rate of 300 μl/min and total run time of 6 min.

Series [5] deals with New Zealand white rabbit sclera-choroid-RPE (SCRPE). The series can be described thus: In vitro transport across rabbit sclera-choroid-RPE (Ussing chamber). The series is classed as in vitro ADME. The note with it: rabbit SCRPE; for transport in presence of OCT competitive inhibitor MPP+: MPP+ 500 μM for GFX-ARG ion pair. The procedure: as §1
Another series relates to conjunctiva. The series can be described thus: In vitro transport of GFX prodrugs across conjunctiva. The series is classed as in vitro ADME, Rabbit.
In another series the test system is calf cornea. The series can be described thus: In vitro transport of substrate cassette across normoxic and hypoxic calf cornea. From the text: (§2) Animals used in this study were those that were sacrificed as part of other experiments approved by the Institutional Animal Care Committee of the Colorado State University (Fort Collins) and University of Colorado Anschutz Medical campus. Hypoxic and normoxic calf eyes were obtained from the Department of Physiology, School of Veterinary Medicine, Colorado State University (Fort Collins, Colo.). Briefly, 1 day old male Holstein calves (n=4) were kept in hypobaric hypoxic chambers (PB=445 mm Hg) for 2 weeks. For control experiment, age matched calves (n=4) were kept at ambient altitude (PB=650 mm Hg) and normoxia for two weeks. Hypoxic and normoxic rat eyes were obtained from the Department of Medicine, University of Colorado Anschutz Medical campus (Aurora, Colo.). Sprague Dawley rats (n=4) were maintained in hypobaric hypoxic chambers (PB=380 mm Hg) for 6 weeks and age matched controls were kept at ambient pressure and normoxia.
(§3) In vitro transport studies across hypoxic and control calf cornea and sclera-choroid-RPE (SCRPE) were carried using cassette dosing approach. A cassette of drug transporter substrates, Gly-Sar (PEPT), valacylovir (ATB^0+), MPP^+ (OCT), and phenylacetic acid (MCT) at a concentration of 100 μM each in assay buffer was prepared. Briefly, the calf eyes were harvested immediately after euthanasia and transferred to the laboratory on ice. Upon arrival in the lab, the eyes were washed with assay buffer and cleaned from muscle and unwanted tissues. Anterior and posterior parts were separated by circumferential cut at the limbus. Vitreous was removed and the neural retina was separated from the choroid-RPE by filling the eye cup with assay buffer. The retina afloat in assay buffer was isolated and the eye cup was divided into two pieces (˜1.5×1.5 cm) of sclera-choroid-RPE. Isolated tissues were mounted on modified Ussing chambers (Navicyte, Sparks, Nev.) such that the episcleral side of SCRPE or epithelial side of cornea was facing the donor chamber and retinal side or endothelial side of the cornea was facing the receiver chamber. The chambers were filled with 1.5 ml of assay buffer at 37° C. with (donor side) or without (receiver side) the cocktail of drug transporter substrates. For the study of effect of transporter inhibitors, cocktail mixture (500 μM) of transporter inhibitors was added on both donor and acceptor sides.
(§4) During the transport study, the bathing fluids were maintained at 37° C. using circulating warm water. The pH of the fluids was maintained at pH 7.4 using 95% air-5% CO2 aeration. Samples were collected (200 μL) from receiver side every hour for 6 hours and the removed volume was replaced with fresh assay buffer pre-equilibrated to 37° C. Drug levels were analyzed using a LC-MS/MS assay. Permeation data were corrected for dilution of the receiver concentrations with sample volume replenishment.
(§5) Analyte concentrations in transport study samples were measured using LC-MS/MS method after 5-fold dilution with acetonitrile to reduce the salt concentrations. A cassette analysis method was developed for simultaneous analysis of Gly-Sar, valacylovir, and MPP Phenyl acetic acid was analyzed separately with a negative ionization method and a normal phase separation method. An API-3000 triple quadrupole mass spectrometry (Applied Biosystems, Foster City, Calif., USA) coupled with a PerkinElmer series-200 liquid chromatography (Perkin Elmer, Waltham, Mass., USA) system was used for analysis. Gly-Sar, valacylovir and MPP were separated on Supelco C-5 column (2.1×10 mm, 3 μm) using water containing 0.1% formic acid (A) and acetonitrile:methanol (50:50 v/v) containing 0.1% formic acid (B) as mobile phase. A linear gradient elution at a flow rate of 0.3 ml/min with a total run time of 9 min was employed. Phenyl acetic acid was separated in normal phase separation mode on Obelisc-N silica column (2.1×10 mm, 3 μM) using 5 mM ammonium formate at pH 3.5 (A) and acetonitrile (B) as mobile phase.

The subject of series [6] is calf sclera-choroid-RPE (SCRPE). The series can be described thus: In vitro transport of substrate cassette across normoxic and hypoxic calf SCRPE.
Text: as §2, §3, §4, §5

For series [7] the following is noted: cited from earlier work.

`COc1c(N2CCNC(C)C2)c(F)cc2c(=O)c(C(=O)O)cn(C3CC3)c12` (stereo not shown) [GFX, gatifloxacin]: the “reported Tmax” value was 19.8 min in [1] (aqueous humor) and 4.98 min in series [1] (cornea). This compound also returned a solubility at 24 h in series [2] of 5.49 mg/mL (≈ 14.6 mM). For the same compound, the results for the solubility in the series “physchem” (water) and in “physchem” (water for injection) were 0.64 mg/mL (≈ 1.7 mM) and 2.5 mg/mL (≈ 6.66 mM), respectively.

With `COc1c(N2CCN(C(=O)C(N)CCCNC(=N)N)C(C)C2)c(F)cc2c(=O)c(C(=O)O)cn(C3CC3)c12` (stereo not shown) [GFX-ARG, 7-(4-(2-amino-5-guanidinopentanoyl)-3-methylpiperazin-1-yl)-1-cyclopropyl-6-fluoro-8-methoxy-4-oxo-1,4-dihydroquinoline-3-carboxylic acid], in [3] (all ocular tissues, 1 hr after single topical 30 μl eye drop, 5 mg/ml in PBS), the “GFX ocular tissue levels compared with GFX alone (in words)” value is given as “higher concentrations of GFX in all ocular tissues; also recorded: enhanced ocular delivery to all ocular tissues”. For the same compound, the “cumulative % transport / permeability compared with GFX (in words)” value in [4] and in [5] was “significantly improved permeability” each time. Also, the “transport in presence of OCTN inhibitor L-carnitine” value in series [4] (L-carnitine 500 μM) and in series [5] (L-carnitine 500 μM) was “did not show any significant inhibitory effect” in each case. The “transport in presence of OCT competitive inhibitor MPP+” value in [4] and in series [5] was “inhibited significantly” in each case. Also, the “cumulative % transport in presence vs absence of ATB0+ inhibitor α-methyl tryptophan” value in series [4] (inhibitor 500 μM) and in [5] (inhibitor 500 μM) was “no significant difference” each time. Also, the solubility in “physchem” (water) and in the series “physchem” (water for injection) was 25.5 mg/mL (≈ 48 mM) throughout.

Take `COc1c(N2CCNC(C)C2)c(F)cc2c(=O)c(C(=O)NCCCN(C)C)cn(C3CC3)c12` (stereo not shown) [GFX-OCT, 1-cyclopropyl-N-(3-(dimethylamino)propyl)-6-fluoro-8-methoxy-7-(3-methylpiperazin-1-yl)-4-oxo-1,4-dihydroquinoline-3-carboxamide]: the “cumulative % transport compared with GFX (in words)” value with conjunctiva is listed as “significantly (p<0.01) higher than GFX”. The “transport in presence of OCT competitive inhibitor MPP+” value (with conjunctiva; in series [4]; in [5]) was “significantly inhibited” each time. The “levels in posterior tissues compared with GFX (in words)” value in series [3] (vitreous humor and CRPE, 1 h after topical eye drop) is “higher concentrations of GFX in all posterior tissues”. Further, the “cumulative % transport / permeability compared with GFX (in words)” value in [4] and in [5] was “significantly (p<0.01) higher than GFX” each time. In the series “physchem” (water for injection), this compound gave a solubility of 33.3 mg/mL (≈ 72.4 mM).

Consider `CC(C)[C@H](N)C(=O)OCCOCn1cnc2c(=O)[nH]c(N)nc21` [valacylovir], for which the “apparent permeability (Papp) across hypoxic vs normoxic tissue (in words)” value in the series on calf cornea (calf cornea) is “significantly higher across normoxic cornea than hypoxic cornea”; in [6] (calf SCRPE), “significantly higher across normoxic SCRPE than hypoxic SCRPE”. Further, the “transport across hypoxic vs normoxic tissue (in words)” value in the series with calf cornea (calf cornea, cassette 100 μM) was “significantly higher across normoxic calf cornea than hypoxic calf cornea”; in series [6] (calf SCRPE, cassette 100 μM), “significantly decreased in hypoxic calf SCRPE; also recorded: significantly higher across normoxic calf SCRPE than hypoxic calf SCRPE”. For the same compound, the results for the “decrease in cumulative % transport across hypoxic tissue” value (in the series on calf cornea (hypoxic vs normoxic calf cornea); in series [6] (hypoxic vs normoxic calf SCRPE)) were 36% and 61%, respectively. Further, the “increase in oral bioavailability as compared to parent acyclovir” value in [7] is reported as “three to five fold increase”.
